Reference: patent US8697730B2, “5-lipoxygenase activating protein (FLAP) inhibitor” (Panmira Pharmaceuticals, LLC, priority 2007, dated 2014)
Like-named read-outs stand apart in the source and are kept apart here.

Assays:
[1] = Solubility in organic solvents; format: physicochemical; details: for solubility: 25 °C, Form C, read-out: Solubility, mg/mL at 25° C.
[2] = Regional dosing study in rat; parameters: species or system Male Sprague-Dawley rats; details: in vivo
urinary LTE4 production = test: Phase 1 study, urinary LTE4; format: in vivo, human
Protocol: Pharmacodynamics: Whole blood ionophore-stimulated leukotriene LTB4 and urinary LTE4 production are assayed by ELISA and mass spectrometry, respectively.
Obtain pre-dose fasting blood samples for hematology determinations. Obtain pre-dose fasting blood samples for serum chemistry determinations. Obtain pre-dose blood samples (5 mL EDTA and 4 mL heparinized) for baseline PK and LTB4. Collect ‘spot’ urine prior to study drug administration for baseline (pre-dose) LTE4. Administer study drug. […] Collect blood samples (2 mL heparinized) for LTB4 at 0.5, 1, 2, 3, 4, 6, 8, and 12 hours. Collect urine for LTE4 for the following separate intervals: 0-3, 3-6, 6-9, and 9-12 hours. For twice daily dosing group (if conducted): administer study drug 12 hours±30 minutes after prior dose, preceded by ≧2 hours fast.
Obtain pre-dose fasting blood samples for hematology determinations. Obtain pre-dose fasting blood samples for serum chemistry determinations. […] Collect blood samples (2 mL heparinized) for LTB4 at 24 hours after the first study drug administration; 4 mL blood will be collected at this time point in the Single Dose Phase. Collect ‘spot’ urine sample for LTE4 at 24 and 36 hours after first study drug administration.
Obtain pre-dose blood samples (5 mL EDTA and 2 mL heparinized) for PK and LTB4. Collect pre-dose urine for LTE4. Administer study drug (last dose of drug). […] Collect blood samples (2 mL heparinized) for LTB4 at 0.5, 1, 2, 3, 4, 6, 8, and 12 hours. Collect urine for LTE4 for the following separate intervals: 0-3, 3-6, 6-9, and 9-12 hours after study drug administration.
Record vital signs 24 hours after Day 11 study drug administration. […] Collect blood sample (4 mL heparinized) for LTB4 at 24 hours after Day 11 study drug administration. Collect ‘spot’ urine sample for LTE4 at 24 hours after Day 11 study drug administration.
Whole blood ionophore-stimulated leukotriene LTB4 and urinary LTE4 production were assayed by ELISA and mass spectrometry, respectively.

CYP2C9 = CYP2C9 (Homo sapiens, UniProt P11712); test: biochemical
Chain of CYP2C9 (P11712 whole entry): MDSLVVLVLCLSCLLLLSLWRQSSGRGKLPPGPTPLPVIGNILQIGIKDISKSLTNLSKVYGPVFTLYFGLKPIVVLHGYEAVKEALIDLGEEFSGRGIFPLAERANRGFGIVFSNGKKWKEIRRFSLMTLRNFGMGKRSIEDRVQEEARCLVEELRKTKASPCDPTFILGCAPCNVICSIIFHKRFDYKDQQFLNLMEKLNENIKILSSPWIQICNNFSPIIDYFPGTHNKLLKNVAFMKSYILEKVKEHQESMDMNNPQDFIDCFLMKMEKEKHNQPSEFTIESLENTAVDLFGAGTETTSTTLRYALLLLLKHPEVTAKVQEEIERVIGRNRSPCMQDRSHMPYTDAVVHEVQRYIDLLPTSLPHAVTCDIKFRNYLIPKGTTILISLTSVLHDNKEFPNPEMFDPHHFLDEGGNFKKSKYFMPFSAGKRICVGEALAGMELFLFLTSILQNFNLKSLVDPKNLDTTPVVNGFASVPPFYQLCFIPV

CYP1A2 = molecular target: T1, CYP1A2 (Homo sapiens, UniProt P05177); test: biochemical
T1 sequence (P05177 1-516): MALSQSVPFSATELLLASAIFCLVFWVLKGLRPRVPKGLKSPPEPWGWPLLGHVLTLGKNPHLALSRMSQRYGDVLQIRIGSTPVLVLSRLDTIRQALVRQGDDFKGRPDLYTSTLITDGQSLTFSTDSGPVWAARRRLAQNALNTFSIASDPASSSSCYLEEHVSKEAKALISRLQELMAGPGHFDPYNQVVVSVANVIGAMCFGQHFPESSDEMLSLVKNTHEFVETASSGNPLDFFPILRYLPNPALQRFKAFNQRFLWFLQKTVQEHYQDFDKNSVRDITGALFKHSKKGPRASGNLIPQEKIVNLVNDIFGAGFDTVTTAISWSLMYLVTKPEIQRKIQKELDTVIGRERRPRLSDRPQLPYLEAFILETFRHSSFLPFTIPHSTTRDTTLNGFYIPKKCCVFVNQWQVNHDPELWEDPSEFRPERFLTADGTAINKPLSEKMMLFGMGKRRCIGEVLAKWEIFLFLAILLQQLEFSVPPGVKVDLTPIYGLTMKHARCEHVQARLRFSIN

Question: For `COc1ccc(-c2ccc(Cn3c(CC(C)(C)C(=O)O)c(SC(C)(C)C)c4cc(OCc5ccccn5)ccc43)cc2)cn1` [sodium 3-[5-(pyridin-2-ylmethoxy)-3-(2-methyl-2-propylthio)-1-[4-(2-methoxypyridin-5-yl)benzyl]-indol-2-yl]-2,2-dimethyl-propionate], which solubility ([1]; aqueous with cosolvent or surfactant or cyclodextrin, 0.5% Methylcellulose/water) is on record?
Answer: Its solubility is 9.3 mg/mL.

Question: What about the solubility ([1]; organic solvent or mixture, Acetonitrile) of the same compound?
Answer: The solubility was 0.2 mg/mL.

Question: And the solubility ([1]; organic solvent or mixture, Ethanol)?
Answer: The solubility was 17.1 mg/mL.

Question: What about the solubility ([1]; organic solvent or mixture, Isopropanol) of the same compound?
Answer: The solubility was 1.1 mg/mL.

Question: And the solubility ([1]; organic solvent or mixture, Methanol)?
Answer: Its solubility is over 50 mg/mL.

Question: What about the solubility ([1]; organic solvent or mixture, Propylene glycol) of the same compound?
Answer: The solubility was 13.4 mg/mL.

Question: And the solubility in words ([1]; acetonitrile)?
Answer: The solubility in words was “sparingly soluble”.

Question: And the solubility in words ([1]; isopropanol)?
Answer: The solubility in words was “sparingly soluble”.

Question: And the solubility in words ([1]; methanol)?
Answer: Its solubility in words is “very soluble”.

Question: What about the “site of absorption in words” value [2] of the same compound?
Answer: Its value is “mainly absorbed in the upper gastrointestinal tract”.

Question: What about the “LTE4 level at t = 24 hrs. (% of baseline)” value (“LTE4 level … (% of baseline)” for short) (urinary LTE4 production; multiple dose, 450 mg daily, Day 1) of the same compound?
Answer: The value was 8.2 ± 4.3 % of baseline.

Question: And the “LTE4 level … (% of baseline)” value (urinary LTE4 production; multiple dose, 450 mg daily, Day 11)?
Answer: The value was 2.8 ± 0.9 % of baseline.

Question: What about the “LTE4 level … (% of baseline)” value (urinary LTE4 production; multiple dose, 1000 mg daily, Day 1) of the same compound?
Answer: The value was 2.5 ± 0.6 % of baseline.

Question: What about the “LTE4 level … (% of baseline)” value (urinary LTE4 production; multiple dose, 1000 mg daily, Day 11) of the same compound?
Answer: The value was 2.3 ± 0.6 % of baseline.

Question: What about the “LTE4 level … (% of baseline)” value (urinary LTE4 production; single dose 50 mg, oral solution) of the same compound?
Answer: Its value is 77 ± 26 % of baseline.

Question: What about the “LTE4 level … (% of baseline)” value (urinary LTE4 production; single dose 150 mg, oral solution) of the same compound?
Answer: Its value is 23 ± 10 % of baseline.

Question: What about the “LTE4 level … (% of baseline)” value (urinary LTE4 production; single dose 300 mg, oral solution) of the same compound?
Answer: The value was 10 ± 5 % of baseline.

Question: What about the “LTE4 level … (% of baseline)” value (urinary LTE4 production; single dose 600 mg, oral solution) of the same compound?
Answer: Its value is 8 ± 3 % of baseline.

Question: And the “LTE4 level … (% of baseline)” value (urinary LTE4 production; single dose 1000 mg, oral solution)?
Answer: Its value is 3 ± 0 % of baseline.

Question: And the IC50 (CYP2C9)?
Answer: Its IC50 is at least 50 µM.

Question: And the IC50 (CYP1A2)?
Answer: Its IC50 is over 50 µM.
